Experimental data as given in patent publication US20190365689A1, “USE OF APE/REF-1 REDOX SPECIFIC INHIBITORS FOR TREATING METASTATIC PROSTATE CANCER” (Indiana University Research and Technology Corporation, priority 2017, published 2019).

Legend:
LNCaP cells = test: Methylene blue assay (cell proliferation), LNCaP; format: cell-based, human; details: 5 days
Procedure: (§1) The cells were fixed and stained with methylene blue and measured via spectrophotometry. […] EC50s were compared between the drugs: * denotes p<0.05 drug EC50 versus RN7-58, while ¶ denotes p<0.05, APX3330 versus APX2009.
(§2) Methylene Blue Assay (Cell Proliferation)
(§3) Prostate cells were seeded 1,000-5000 per well (cell line/experiment-dependent) and treated with one of APX3330, APX2009 or RN7-58 for 5 days. Media was then removed and cells were fixed with methanol for 10 minutes and stained with 100 μL of 0.05% of methylene blue (LC16920-1 diluted in 1×PBS) for 1 hour. The cells were then washed 3× with water and allowed to air dry overnight. 100 μL of 0.5 N HCl was added to each well to dissolve the methylene blue stain and absorbance (@630) was measured via spectrophotometry. The percent viabilities, normalized to DMSO, were graphed and IC50 concentrations determined.
(§4) To determine if inhibition of APE1/Ref-1's redox function affects cell proliferation, prostatic cell lines were treated with increasing concentrations of redox-specific inhibitors, APX3330 and APX2009, for 5 days and cell number was measured via methylene blue assay (FIG. 2A). […] Growth IC25's and IC50's were determined and arranged in Table 1. Student's t-test was performed to verify statistical IC25 and IC50 differences between APX3330 and APX2009.

C4-2 cells = test: Methylene blue assay (cell proliferation), C4-2; format: cell-based, human; details: C4-2, 5 days
Procedure: as §1, §2, §3, §4

E7 cells = test: Methylene blue assay (cell proliferation), E7 non-cancerous prostate epithelial cells; format: cell-based; details: E7, 5 days
Procedure: as §1, §2, §3, §4

survivin = test: Immunoblotting for survivin protein levels in prostate cancer cells; format: cell-based, human
Procedure: (§5) PC-3 (FIG. 3A), C4-2 (FIG. 3B), LNCaP (FIG. 3C) and E7 (FIG. 3D) cell lines were treated with DMSO, or the growth inhibitory IC25 and IC50 drug concentrations of APX3330 or APX2009 for 48 hours Immunoblotting for survivin, APE1/Ref-1 and Actin as labeled. Representative of three determinations with densitometry quantification, N=3, *-denoting p<0.05 (DMSO vs. IC25 and IC50 Drug Concentrations) within ANOVA.
FIG. 6A: C4-2 cell line was treated with DMSO or APX2009 (14 μM) for 12 hours. RNA was isolated and RT-PCR for survivin was performed with HPRT1 as the reference gene. n=6, *-denoting p<0.05 by unpaired Student's t-test. FIG. 6B: Immunoblot validation of APE1/Ref-1 and p65 Co-Immunoprecipitation (Co-IP) reactions. A 5% sample of the total input of each reaction (Input) and the total IP reaction (IP) were loaded for each reaction. Beads lacking a conjugated antibody (Mock) and generic IgG (IgG) were used as negative controls for each IP experimental reaction, APE1 antibody (top blots) and p65 (bottom blots). FIG. 6C: C4-2 cell line was treated with DMSO, APX2009 (8 and 14 μM) or PDTC (50 and 100 μM) for 72 hours and cells were fixed and methylene blue was performed. n=3, *-denoting p<0.05 (DMSO vs 8 and 14 μM APX2009) and #-denoting p<0.05 (DMSO vs. 50 and 100 μM PDTC) as assessed by ANOVA. […] Data are expressed as Relative Luciferase Units (RLU) normalized to DMSO showing the mean±SEM. n=3, *-denoting p<0.05 (DMSO vs. 14 μM APX2009) and #-denoting p<0.05 (DMSO vs. 100 μM PDTC) within unpaired Students t-test. […] Data presented are representative of three determinations with densitometry quantification, […], *-denoting p<0.05 (DMSO vs. 14 μM APX2009) and #-denoting p<0.05 (DMSO vs. 100 μM) as assessed by unpaired Student's t-test.
Prostate cells were homogenized in lysis buffer containing protease inhibitor (150 mM NaCl, 10 mM tris, 1 mM EDTA, 1 mM benzenesulfonyl fluoride, and 10 μg/ml each of aprotinin, bestatin, L-luecine, and pepstatin A) and 1% Triton X-100. Total protein concentration was determined by BCA (bicinchoninic acid) assay (Pierce, Rockford, Ill.). […]

C4-2 xenograft tumors = test: In vivo subcutaneous C4-2 xenograft tumor; parameters: species or system male athymic nude mice
Procedure: C4-2 xenograft tumors were treated with vehicle (Propylene Glycol Kolliphor HS15 Tween 80 (PKT)) or APX2009 (25 mg/kg, IP bid) for 5 days (n=3). Tumors were removed and processed for either immunofluorescence or immunoblotting. FIG. 8A: APE1/Ref-1 and survivin protein levels were measured using immunoblotting as labeled (Left). Data was presented graphically (Right), *-denoting p<0.05 by unpaired Student's t-Test. FIG. 8B: Hematoxylin and Eosin staining and immunofluorescence were performed using APE1/Ref-1 (red) and survivin (green) specific antibodies on vehicle and APX2009 groups. Representative images were taken. White arrows are depicting survivin nuclear staining patterns. […] ImageJ Nucleus Counter was used to quantify number of BrdU+ nuclei and total nuclei per image. n=3, *-denoting p<0.05 by unpaired Student's t-test.
Human prostate specimens or C4-2 xenograft tumors were fixed in 10% formalin, processed routinely, embedded in paraffin, and serially sectioned at 5 μm via microtome. […] The sections were analyzed by immunofluorescence. […]
2×10^6 C4-2 cells were subcutaneously implanted in the hind flank of male athymic nude mice using a 100 μl volume of 50:50 solution of Matrigel: RPMI medium. […] BrdU was injected into the animals 2 hours prior to sacrifice and tumor tissues were analyzed for survivin levels (immunofluorescence and immunoblotting) and BrdU incorporation (immunofluorescence).

APE1/Ref-1 = test: Immunoblotting for total APE1/Ref-1 protein levels in prostate cancer cells; format: cell-based, human; details: growth inhibitory drug concentrations, 48 hours, vs DMSO
Procedure: as §5
Prostate cells were homogenized in lysis buffer containing protease inhibitor (150 mM NaCl, 10 mM tris, 1 mM EDTA, 1 mM benzenesulfonyl fluoride, and 10 μg/ml each of aprotinin, bestatin, L-luecine, and pepstatin A) and 1% Triton X-100. Total protein concentration was determined by BCA (bicinchoninic acid) assay (Pierce, Rockford, Ill.). 10 μg/well of Protein were resolved by electrophoresis in 4-15% gradient polyacrylamide gels (Bio-Rad Laboratories). […] Peroxidase activity was detected via Pico chemiluminescence reagent (Pierce). Photo images were analyzed by densitometry.

prostatic cell lines = test: Methylene blue assay (cell proliferation), statements across prostatic cell lines; format: cell-based, human; details: increasing concentrations, 5 days
Procedure: as §1, §2, §3, §4

PC-3 cells = test: Methylene blue assay (cell proliferation), PC-3; format: cell-based, human; details: PC-3, 5 days
Procedure: as §1, §2, §3, §4

NFκB = test: NFκB-driven luciferase assay in C4-2 cells; format: cell-based, human; details: C4-2, growth inhibitory IC50 concentrations (14 μM APX2009, 100 μM PDTC), 24 hours
Procedure: FIG. 6A: C4-2 cell line was treated with DMSO or APX2009 (14 μM) for 12 hours. RNA was isolated and RT-PCR for survivin was performed with HPRT1 as the reference gene. n=6, *-denoting p<0.05 by unpaired Student's t-test. FIG. 6B: Immunoblot validation of APE1/Ref-1 and p65 Co-Immunoprecipitation (Co-IP) reactions. A 5% sample of the total input of each reaction (Input) and the total IP reaction (IP) were loaded for each reaction. Beads lacking a conjugated antibody (Mock) and generic IgG (IgG) were used as negative controls for each IP experimental reaction, APE1 antibody (top blots) and p65 (bottom blots). FIG. 6C: C4-2 cell line was treated with DMSO, APX2009 (8 and 14 μM) or PDTC (50 and 100 μM) for 72 hours and cells were fixed and methylene blue was performed. n=3, *-denoting p<0.05 (DMSO vs 8 and 14 μM APX2009) and #-denoting p<0.05 (DMSO vs. 50 and 100 μM PDTC) as assessed by ANOVA. […] Data are expressed as Relative Luciferase Units (RLU) normalized to DMSO showing the mean±SEM. n=3, *-denoting p<0.05 (DMSO vs. 14 μM APX2009) and #-denoting p<0.05 (DMSO vs. 100 μM PDTC) within unpaired Students t-test. […] Data presented are representative of three determinations with densitometry quantification, […], *-denoting p<0.05 (DMSO vs. 14 μM APX2009) and #-denoting p<0.05 (DMSO vs. 100 μM) as assessed by unpaired Student's t-test. […]

[1] = 25% reduction in absorbance vs DMSO, in µM
[2] = 50% reduction in absorbance vs DMSO, read-out: Growth IC50

Molecule | Growth IC25 (LNCaP cells; [1]) | IC50 (LNCaP cells; [2]) [µM] | Growth IC25 (C4-2 cells; [1]) | IC50 (C4-2 cells; [2]) [µM] | Growth IC25 (E7 cells; [1]) | IC50 (E7 cells; [2]) [µM] | survivin protein abundance (survivin; growth inhibitory IC50 drug concentrations, within 48 hours, vs DMSO) | survival proteins Bcl-2, Mcl-1 and survivin (survivin; prostate cell lines, immunoblotting) | Total survivin protein in tumors via immunoblotting (C4-2 xenograft tumors; 25 mg/kg BID IP, 5 days, vs vehicle) | cell proliferation via BrdU staining (C4-2 xenograft tumors; prostatic tumor xenografts) | total APE1/Ref-1 protein levels (APE1/Ref-1) | Effect on cell proliferation (prostatic cell lines) | Growth IC25 (PC-3 cells; [1]) | IC50 (PC-3 cells; [2]) [µM] | decrease in NFκB-driven luciferase activity (NFκB) | reduction in survivin protein levels (survivin; C4-2, 14 μM APX2009 / 100 μM PDTC, 48 hours) [%]
3-[(5-(2,3-dimethoxy-6-methyl1,4-benzoquinoyl)]-2-nonyl-2-proprionic acid [APX3330] | 43.8 +/− 4.2 | 71.9 | 57.4 +/− 3.8 | 89.5 | 82.7 +/− 8.7 | > 100 | significant decrease | decrease | decreased | decreased | not significantly altered | inhibited cell proliferation in a concentration-dependent manner | 36.0 +/− 1.0 | 54.7 |  | 
N.S=C(S)N1CCCC1 [PDTC, Ammonium pyrrolidinedithiocarbamate, reference compound] |  |  |  |  |  |  |  |  |  |  |  |  |  |  | two-fold | 67
